{"source": "patent US20260151518A1", "about": "“LEUKOCYTE-SPECIFIC CELL PENETRATING MOLECULES” (Amytrx Therapeutics, Inc., priority 2021, published 2026)", "experiment": "Tissue distribution of radioactivity by quantitative whole body autoradiography (QWBA) after single intravenous [3H]-AMTX-100", "assay_type": "in vivo, rat", "details": "single intravenous, 5 mg/kg, rat", "protocol": "The formulation was administered directly into a tail vein. The dose volume (2.5 mL/kg) was used to achieve a dose level of 5 mg/kg and radioactive dose levels of 100 μCi/kg (Phase 1) and 500 μCi/kg (Phase 2). The dose formulation was stirred continuously throughout the dosing procedure.\nQuantitative Whole Body Autoradiography (QWBA). The frozen carcasses were subjected to QWBA. Sections were presented at up to five different levels of the rat body to include between 30 and 40 tissues (subject to presence of sufficient radioactivity).\nThe freeze-dried whole body autoradiography sections were exposed to phosphor-storage imaging plates and incubated at ambient temperature in the dark for seven days. Calibrated autoradiographic blood standards containing known amounts of radioactivity (nCi/g) were included in each exposure.\nDistribution of radioactivity in tissues and [^3H]-blood standards (prepared and validated at Pharmaron UK Ltd.) was determined and quantified using a Fuji FLA-5100 fluorescent image analyzing system and associated Tina (version 2.09) and SeeScan (version 2.0) software. For each exposure, a standard curve was produced in SeeScan using the data from the autoradiographic blood standards from which tissue concentrations of radioactivity (μg equivalents/g) were determined.\nA representative background radioactivity measurement for each exposure plate used was also taken. The number of measurements for each particular tissue was determined by the number of levels it appeared in. Multiple measurements were therefore performed for larger tissues that appeared in more than one level (e.g. liver), with only one measurement obtained for small tissues (e.g. thyroid gland). The limit of accurate quantification was considered to be the lowest [^3H]-blood standard visible.\nThree of the carcasses obtained from the eight male Sprague Dawley rats subjected to whole blood collection and analysis after each receiving a single intravenous administration of [^3H]-AMTX-100, were selected for QWBA analysis at each of the following time points: 10 minutes and 2 and 12 hours post-dose.\nEach carcass was snap frozen by immersion in a hexane/dry ice mixture immediately after collection and was then stored at approximately −20° C., pending analysis by QWBA.", "note": "Marks after values point to notes of the source that are not given here."}
{"compound": "CSCC[C@@H]1NC(=O)[C@H](CC(C)C)NC(=O)[C@H](CCCCN)NC(=O)[C@H](CCC(N)=O)CC(=O)[C@H](CCCNC(=N)N)NC(=O)[C@H](CCCCN)NC(=O)[C@H](CCCNC(=N)N)NC(=O)[C@H](CCC(N)=O)NC(=O)[C@H](C(C)C)NC(=O)[C@@H](NC(=O)[C@@H]2CCCN2C(=O)[C@H](C)NC(=O)[C@H](CC(C)C)NC(=O)[C@H](CC(C)C)NC(=O)[C@H](C)NC(=O)[C@H](CC(C)C)NC(=O)[C@H](CC(C)C)NC(=O)[C@@H](NC(=O)[C@H](C)NC(=O)[C@@H]2CCCN2C(=O)[C@H](CC(C)C)NC(=O)[C@H](CC(C)C)NC(=O)[C@H](C)NC(=O)[C@@H](NC(=O)[C@H](C)NC(=O)[C@H](C)N)C(C)C)C(C)C)CSSC[C@@H](C(=O)O)NC(=O)[C@@H]2CCCN2C1=O", "note": "[[^3H]-AMTX-100]", "values": [{"measurement": "Concentration of radioactivity in Caecum mucosa", "setting": "2 hr", "result": 0.76, "unit": "μg equivalents/g"}, {"measurement": "Concentration of radioactivity in Epididymis", "setting": "2 hr", "result": 0.67, "unit": "μg equivalents/g"}, {"measurement": "Concentration of radioactivity in Ex-orbital lachrymal gland", "setting": "2 hr", "result": 0.46, "unit": "μg equivalents/g"}, {"measurement": "Concentration of radioactivity in Eye: lens", "setting": "2 hr", "result": "BLQ (Below lower limit of accurate quantification (<0.36 μg equivalents/g))"}, {"measurement": "Concentration of radioactivity in Eye: whole", "setting": "2 hr", "result": "BLQ (Below lower limit of accurate quantification (<0.36 μg equivalents/g))"}, {"measurement": "Concentration of radioactivity in Fat: brown", "setting": "2 hr", "result": "BLQ (Below lower limit of accurate quantification (<0.36 μg equivalents/g))"}, {"measurement": "Concentration of radioactivity in Fat: white", "setting": "2 hr", "result": "BLQ (Below lower limit of accurate quantification (<0.36 μg equivalents/g))"}, {"measurement": "Concentration of radioactivity in Forestomach mucosa", "setting": "2 hr", "result": 0.57, "unit": "μg equivalents/g"}, {"measurement": "Concentration of radioactivity in Glandular stomach mucosa", "setting": "2 hr", "result": 0.81, "unit": "μg equivalents/g"}, {"measurement": "Concentration of radioactivity in Harderian gland", "setting": "2 hr", "result": 0.37, "unit": "μg equivalents/g"}, {"measurement": "Concentration of radioactivity in Kidney: cortex", "setting": "2 hr", "result": 9.59, "unit": "μg equivalents/g"}, {"measurement": "Concentration of radioactivity in Kidney: medulla", "setting": "2 hr", "result": 4.47, "unit": "μg equivalents/g"}, {"measurement": "Concentration of radioactivity in Kidney: whole", "setting": "2 hr", "result": 7.35, "unit": "μg equivalents/g"}, {"measurement": "Concentration of radioactivity in Large intestine contents", "setting": "2 hr", "result": "BLQ (Below lower limit of accurate quantification (<0.36 μg equivalents/g))"}, {"measurement": "Concentration of radioactivity in Large intestine mucosa", "setting": "2 hr", "result": 0.63, "unit": "μg equivalents/g"}, {"measurement": "Concentration of radioactivity in Liver", "setting": "2 hr", "result": 31.60, "unit": "μg equivalents/g"}, {"measurement": "Concentration of radioactivity in Lung", "setting": "2 hr", "result": 31.90, "unit": "μg equivalents/g"}, {"measurement": "Concentration of radioactivity in Lymph node", "setting": "2 hr", "result": 0.83, "unit": "μg equivalents/g"}, {"measurement": "Concentration of radioactivity in Muscle", "setting": "2 hr", "result": "BLQ (Below lower limit of accurate quantification (<0.36 μg equivalents/g))"}, {"measurement": "Concentration of radioactivity in Myocardium", "setting": "2 hr", "result": 0.53, "unit": "μg equivalents/g"}, {"measurement": "Concentration of radioactivity in Pancreas", "setting": "2 hr", "result": 1.69, "unit": "μg equivalents/g"}, {"measurement": "Concentration of radioactivity in Pituitary gland", "setting": "2 hr", "result": 1.58, "unit": "μg equivalents/g"}, {"measurement": "Concentration of radioactivity in Prostate gland", "setting": "2 hr", "result": 0.83, "unit": "μg equivalents/g"}, {"measurement": "Concentration of radioactivity in Salivary gland", "setting": "2 hr", "result": 0.80, "unit": "μg equivalents/g"}, {"measurement": "Concentration of radioactivity in Skin", "setting": "2 hr", "result": 0.39, "unit": "μg equivalents/g"}, {"measurement": "Concentration of radioactivity in Small intestine contents", "setting": "2 hr", "result": 1.23, "unit": "μg equivalents/g"}, {"measurement": "Concentration of radioactivity in Small intestine mucosa", "setting": "2 hr", "result": 0.89, "unit": "μg equivalents/g"}, {"measurement": "Concentration of radioactivity in Spinal cord", "setting": "2 hr", "result": "BLQ (Below lower limit of accurate quantification (<0.36 μg equivalents/g))"}, {"measurement": "Concentration of radioactivity in Spleen: red pulp", "setting": "2 hr", "result": 11.90, "unit": "μg equivalents/g"}, {"measurement": "Concentration of radioactivity in Spleen: white pulp", "setting": "2 hr", "result": 2.92, "unit": "μg equivalents/g"}, {"measurement": "Concentration of radioactivity in Spleen: whole", "setting": "2 hr", "result": 41.80, "unit": "μg equivalents/g"}, {"measurement": "Concentration of radioactivity in Stomach contents", "setting": "2 hr", "result": "BLQ (Below lower limit of accurate quantification (<0.36 μg equivalents/g))"}, {"measurement": "Concentration of radioactivity in Testis", "setting": "2 hr", "result": 0.37, "unit": "μg equivalents/g"}, {"measurement": "Concentration of radioactivity in Thymus", "setting": "2 hr", "result": 0.68, "unit": "μg equivalents/g"}, {"measurement": "Concentration of radioactivity in Thyroid gland", "setting": "2 hr", "result": 1.29, "unit": "μg equivalents/g"}, {"measurement": "Concentration of radioactivity in Urinary bladder wall", "setting": "2 hr", "result": 1.22, "unit": "μg equivalents/g"}, {"measurement": "Concentration of radioactivity in Urinary bladder contents", "setting": "2 hr, above upper limit of accurate quantification (>153 μg equivalents/g)", "result": "219.00* μg equivalents/g"}, {"measurement": "Concentration of radioactivity in Adrenal gland", "setting": "12 hr", "result": 0.44, "unit": "μg equivalents/g"}, {"measurement": "Concentration of radioactivity in Blood: residual cardiac", "setting": "12 hr", "result": "BLQ (Below lower limit of accurate quantification (<0.36 μg equivalents/g))"}, {"measurement": "Concentration of radioactivity in Bone marror", "setting": "12 hr", "result": 2.18, "unit": "μg equivalents/g"}, {"measurement": "Concentration of radioactivity in Caecum contents", "setting": "12 hr", "result": "BLQ (Below lower limit of accurate quantification (<0.36 μg equivalents/g))"}, {"measurement": "Concentration of radioactivity in Kidney: cortex", "setting": "12 hr", "result": 0.61, "unit": "μg equivalents/g"}, {"measurement": "Concentration of radioactivity in Kidney: medulla", "setting": "12 hr", "result": 0.45, "unit": "μg equivalents/g"}, {"measurement": "Concentration of radioactivity in Kidney: whole", "setting": "12 hr", "result": 0.54, "unit": "μg equivalents/g"}, {"measurement": "Concentration of radioactivity in Large intestine contents", "setting": "12 hr", "result": 0.36, "unit": "μg equivalents/g"}, {"measurement": "Concentration of radioactivity in Large intestine mucosa", "setting": "12 hr", "result": "BLQ (Below lower limit of accurate quantification (<0.36 μg equivalents/g))"}, {"measurement": "Concentration of radioactivity in Liver", "setting": "12 hr", "result": 8.77, "unit": "μg equivalents/g"}, {"measurement": "Concentration of radioactivity in Lung", "setting": "12 hr", "result": 30.10, "unit": "μg equivalents/g"}, {"measurement": "Concentration of radioactivity in Muscle", "setting": "12 hr", "result": "BLQ (Below lower limit of accurate quantification (<0.36 μg equivalents/g))"}, {"measurement": "Concentration of radioactivity in Pancreas", "setting": "12 hr", "result": "BLQ (Below lower limit of accurate quantification (<0.36 μg equivalents/g))"}, {"measurement": "Concentration of radioactivity in Small intestine contents", "setting": "12 hr", "result": 0.47, "unit": "μg equivalents/g"}, {"measurement": "Concentration of radioactivity in Small intestine mucosa", "setting": "12 hr", "result": "BLQ (Below lower limit of accurate quantification (<0.36 μg equivalents/g))"}, {"measurement": "Concentration of radioactivity in Spleen: red pulp", "setting": "12 hr", "result": 6.89, "unit": "μg equivalents/g"}, {"measurement": "Concentration of radioactivity in Spleen: white pulp", "setting": "12 hr", "result": 0.89, "unit": "μg equivalents/g"}, {"measurement": "Concentration of radioactivity in Spleen: whole", "setting": "12 hr", "result": 11.90, "unit": "μg equivalents/g"}, {"measurement": "Concentration of radioactivity in Testis", "setting": "12 hr", "result": "BLQ (Below lower limit of accurate quantification (<0.36 μg equivalents/g))"}, {"measurement": "Concentration of radioactivity in Urinary bladder contents", "setting": "12 hr", "result": 11.90, "unit": "μg equivalents/g"}, {"measurement": "Concentration of radioactivity in Urinary bladder wall", "setting": "12 hr", "result": "BLQ (Below lower limit of accurate quantification (<0.36 μg equivalents/g))"}]}
